Test results reported in paper PMC7143758, “Highly Substituted Phenol Derivatives with Nitric Oxide Inhibitory Activities from the Deep-Sea-Derived Fungus Trichobotrys effuse FS524” (Marine Drugs, 2020).

Assays:
[1] = Cytotoxicity / viability of macrophages (SRB method); assay type: cell-based, mouse; details: mouse, RAW264.7 macrophage cells, RAW264.7 macrophages
Description: (§1) Compounds 1–6 were evaluated for the inhibitory activity of nitric oxide (NO) production in lipopolysaccharide (LPS)-induced RAW 246.7 mouse macrophages. The cells (180 μL) with a density of 5 × 10^5 cells/mL of media on a 96-well plate were put under 37 °C at a 5% CO2 condition. After a 24 h preincubation, the seeded cells were treated with gradient dilutions of 1-6 with a maximum concentration of 100 μM, followed by stimulation with LPS (1 μg/mL) for 24 h. Then 50 μL cell culture supernatant solution was moved to a new plate that contained NO detection Griess A (50 μL) and Griess B (50 μL). Finally, the absorbance was measured at 540 nm. Aminoguanidine was used as a positive control and all data were obtained in triplicate. The viability of RAW264.7 cells was evaluated according to the SRB method simultaneously to exclude the interference of the cytotoxicity of 1–6. The RAW264.7 cells were purchased from the Cell Bank of the Chinese Academy of Sciences.

[2] = tested on: NO production in LPS-induced RAW 264.7 macrophages; test: Inhibition of nitric oxide (NO) production in LPS-induced macrophages (Griess); assay type: cell-based, mouse; details: for IC50: LPS (1 μg/mL) 24 h, RAW 264.7 mouse macrophages, Griess, mean ± SD, triplicate; for inhibitory activities against NO production (in words): LPS-induced RAW 264.7 macrophages
Description: as §1

RAW264.7 cells = test: Cytotoxicity / viability of macrophages (SRB method); assay type: cell-based, mouse; details: RAW264.7 macrophages
Description: as §1

Row | Structure (SMILES) | IC50 ([2]; Mus musculus, RAW264.7, 24 h) | melting point | IC50 [2] | IC50 at 24 h [1] | inhibitory activities against NO production (in words) [2] | IC50 (RAW264.7 cells)
1 | CCCc1cc2c(c(O)c1CO)COC2=O [Compound 6, Trieffusol F] | 111 ± 4.6 µM |  |  | > 200 µM |  | 
2 | CCC1(O)C(=O)C2=C(CC1O)OC1=C(C(=O)C(O)(CC)C(O)C1)C2c1ccc(O)cc1 (stereo not shown) [Compound 1, Trieffusol A] | > 200 µM | 149 to 150 °C |  | > 200 µM |  | 
3 | N=C(N)NN [Aminoguanidine, reference compound] |  |  | 24.8 ± 0.8 µM |  |  | > 200 µM
4 | C/C=C/C(=O)c1c(OC)cc2c(c1O)CCO2 [Compound 5, Trieffusol E] | 65.5 ± 1.3 µM |  |  | > 200 µM |  | 
5 | CCC1(O)C(=O)C2=C(CC1O)OC1=C(C(=O)C(O)(CC)C(O)C1)C2c1ccc(O)cc1 (stereo not shown) [Compound 2, Trieffusol B] |  |  | 108 ± 3 µM |  |  | > 200 µM

Further lines, with some results ahead:

Row | IC50 ([2]; Mus musculus, RAW264.7, 24 h) | melting point | IC50 [2] | Structure (SMILES) | IC50 at 24 h [1] | inhibitory activities against NO production (in words) [2] | IC50 (RAW264.7 cells)
6 | 51.9 to 55.9 µM |  |  | CCc1c(O)cc2c(c1O)C(=O)CC(C)O2 (stereo not shown) [Compound 4, Trieffusol D] | > 200 µM | moderate inhibitory activities | 
7 | 54.3 ± 2.2 µM |  |  | CCc1c(O)cc2c(c1O)C(=O)C[C@@H](C)O2 [Compound 4a, (+)-Trieffusol D] | > 200 µM |  | 
8 | 55.9 ± 1.6 µM |  |  | CCc1c(O)cc2c(c1O)C(=O)C[C@H](C)O2 [Compound 4b, (−)-Trieffusol D] | > 200 µM |  | 
9 | 51.9 to 55.9 µM |  | 51.9 ± 1.4 µM | CCC1(O)C(=O)C=C(OCCc2ccc(O)cc2)CC1O (stereo not shown) [Compound 3, Trieffusol C] | > 200 µM | moderate inhibitory activities | 
